The results in this text go back to patent US20050209278A1, “Piperidinyl- and piperazinyl-sulfonylmethyl hydroxamic acids and their use as protease inhibitors” (priority 2002, published 2005).

One assay has as its target T1, MMP-14 (Homo sapiens, UniProt P50281).
T1 construct: The catalytic domain enzyme was expressed in E. coli inclusion bodies, solubilized in urea; made in house
In words: In vitro MMP inhibition, Ki determination (fluorogenic substrate II). Format: biochemical. The following applies: value not in parenthesis; read-out: MMP-14 Ki. The method, boiled down: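 E. coli-expressed, refolded MMP-14 catalytic domain, activated with APMA or trypsin, in 100 mM Tris-HCl pH 7.5, 100 mM NaCl, 10 mM CaCl2, 0.05% Brij-type detergent. Apparent Ki by Morrison-equation regression of velocity vs inhibitor and enzyme concentration.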

The target of a further assay is T2, MMP-13 (Homo sapiens, UniProt P45452).
T2 construct: made in house; host or cells: baculovirus / insect cells
The assay is described as above. The conditions noted are these: value not in parenthesis; read-out: MMP-13 Ki. The assay is classed as biochemical. In outline: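 Ki determined with human recombinant MMP-13, baculovirus-expressed as proenzyme and activated with APMA. Fluorogenic MCA/Dpa substrate II at 4 μM (at or below Km) with low enzyme in Tris buffer pH 7.5 with CaCl2. Incubation was 1 h at room temperature, with fluorescence read at 330/420 nm.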

By Ki is commonly meant a dissociation constant, usually derived from enzyme kinetics or from competition with a known ligand. For `CCCCCc1ccc(N2CCN(S(=O)(=O)C3(C(=O)NO)CCN(C(=O)CC)CC3)CC2)cc1` [Example 206], the Ki stood at 110 nM at MMP-14 and 0.41 nM on MMP-13.

Consider `COCCN1CCC(C(=O)NO)(S(=O)(=O)N2CCN(c3ccc(C)cc3)CC2)CC1` [Example 194], for which the inhibitory constant (Ki) at MMP-14 worked out at 307 nM; on MMP-13, 4.06 nM.

For the molecule `Cc1ccc(N2CCC(C(=O)NO)(S(=O)(=O)N3CCN(c4ccc(OCCCC(F)(F)F)cc4)CC3)CC2)cc1` [Example 161], the values for the Ki on MMP-14 and on MMP-13 were more than 10000 nM and 2.91 nM, respectively.

On to `CCCc1cnc(N2CCN(S(=O)(=O)C3(C(=O)NO)CCN(CCOC)CC3)CC2)nc1` [Example 178], for which the Ki on MMP-14 amounted to 2590 nM; at MMP-13, 5.26 nM.

`O=C(NO)C1(S(=O)(=O)N2CCN(c3ccc(OC(F)(F)F)cc3)CC2)CCN(C2CC2)CC1` [Example 203]: the Ki at MMP-14 stood at 569 nM; on MMP-13 it was 0.35 nM.

`CCCc1nnc(N2CCN(S(=O)(=O)C3(C(=O)NO)CCOCC3)CC2)s1` [Example 216]: the results for the inhibition constant (Ki) on MMP-14 and at MMP-13 were more than 10000 nM and 734 nM, respectively.

Turning to `CCCCCc1ccc(N2CCN(S(=O)(=O)C3(C(=O)NO)CCOCC3)CC2)nn1` [Example 197], the inhibition constant (Ki) is more than 10000 nM on MMP-14 and 6.05 nM on MMP-13.

On to `CCCCOc1ccc(N2CCN(S(=O)(=O)C3(C(=O)NO)CCN(C(=O)c4ccco4)CC3)CC2)cc1` [Example 156], for which the inhibition constant (Ki) at MMP-14 came out at 2430 nM; on MMP-13, 0.31 nM.

`CCCCOc1ccc(N2CCN(S(=O)(=O)C3(C(=O)NO)CCN(C(=O)c4cccs4)CC3)CC2)cc1` [Example 160]: the figures for the inhibitory constant (Ki) on MMP-14 and at MMP-13 were 2760 nM and 0.417 nM, respectively.

Consider `COCCN1CCC(C(=O)NO)(S(=O)(=O)N2CCN(c3ccc(OCC(C)C)c(F)c3)CC2)CC1` [Example 166], for which the inhibition constant (Ki) was more than 10000 nM at MMP-14 and 0.71 nM at MMP-13.

On to `COCCN1CCC(C(=O)NO)(S(=O)(=O)N2CCN(c3nc4ccccc4o3)CC2)CC1` [Example 196], for which the Ki on MMP-14 was determined as 6840 nM; at MMP-13, 56.1 nM.

As to `CCCCOc1ccc(N2CCN(S(=O)(=O)C3(C(=O)NO)CCN(C(=O)N(C(C)C)C(C)C)CC3)CC2)cc1` [Example 244], the Ki at MMP-14 came to 5310 nM; on MMP-13, 0.57 nM.

Regarding `COCCN1CCC(C(=O)NO)(S(=O)(=O)N2CCN(c3ccc(CC(C)C)cc3)CC2)CC1` [Example 192], the Ki on MMP-14 was found to be 6980 nM; on MMP-13, 1.93 nM.

Turning to `CCC(C)Cc1ccc(N2CCN(S(=O)(=O)C3(C(=O)NO)CCN(CCOC)CC3)CC2)cc1` (centres unmarked) [Example 190], the inhibition constant (Ki) at MMP-14 was 6100 nM; on MMP-13, 0.842 nM.

With `CCCc1ccc(N2CCN(S(=O)(=O)C3(C(=O)NO)CCN(CCOC)CC3)CC2)cc1` [Example 200], the Ki on MMP-14 was found to be 842 nM; at MMP-13, 1.61 nM.

Take `CCCCCc1cnc(N2CCN(S(=O)(=O)C3(C(=O)NO)CCOCC3)CC2)cn1` [Example 219]: the results for the Ki on MMP-14 and at MMP-13 were 3210 nM and 1.11 nM, respectively.

Regarding `CCCCOc1ccc(N2CCN(S(=O)(=O)C3(C(=O)NO)CCN(Cc4ncc[nH]4)CC3)CC2)cc1` [Example 247], the Ki on MMP-14 was determined as 1980 nM; at MMP-13, 0.166 nM.

Regarding `CCCCOc1ccc(N2CCN(S(=O)(=O)C3(C(=O)NO)CCN(c4cccc(C)c4)CC3)CC2)cc1` [Example 226], the values for the Ki at MMP-14 and on MMP-13 were more than 10000 nM and 4.38 nM, respectively.

Regarding `CCCCOc1ccc(N2CCN(S(=O)(=O)C3(C(=O)NO)CCN(CCOC)CC3)CC2)cn1` [Example 164], the Ki at MMP-14 was determined as 8880 nM; on MMP-13, 22 nM.

Take `CCCCOc1ccc(N2CCN(S(=O)(=O)C3(C(=O)NO)CCN(C(=O)N4CCN(C)CC4)CC3)CC2)cc1` [Example 230]: the Ki is 2510 nM at MMP-14 and 0.27 nM on MMP-13.

As for `O=C(NO)C1(S(=O)(=O)N2CCN(c3ccccn3)CC2)CCOCC1` [Example 169], the figures for the Ki on MMP-14 and at MMP-13 were 84.9 nM and 1.88 nM, respectively.

As to `O=C(NO)C1(S(=O)(=O)N2CCN(c3ccc(SC(F)(F)F)cc3)CC2)CCOCC1` [Example 170], the inhibition constant (Ki) is 453 nM on MMP-14 and 0.96 nM at MMP-13.

With `CCCCc1ccc(N2CCN(S(=O)(=O)C(C)C(=O)NO)CC2)nc1` (centres unmarked) [Example 217], the values for the Ki on MMP-14 and at MMP-13 were 1510 nM and 1.21 nM, respectively.

`COCCSc1ccc(N2CCN(S(=O)(=O)C3(C(=O)NO)CCOCC3)CC2)cc1` [Example 227]: the Ki turned out to be 1680 nM on MMP-14 and 1.79 nM on MMP-13.

Regarding `CCCCc1nnc(N2CCN(S(=O)(=O)C3(C(=O)NO)CCOCC3)CC2)s1` [Example 214], the inhibition constant (Ki) was more than 10000 nM at MMP-14 and 482 nM at MMP-13.

As to `O=C(NO)C1(S(=O)(=O)N2CCN(c3ccc4c(c3)OC(F)(F)C(F)(F)O4)CC2)CCOCC1` [Example 67], the Ki at MMP-14 is more than 10000 nM; on MMP-13 it was 156 nM.

Regarding `COCCN1CCC(C(=O)NO)(S(=O)(=O)N2CCN(c3ccccc3)CC2)CC1` [Example 195], the inhibition constant (Ki) on MMP-14 came out at 414 nM; at MMP-13, 8.07 nM.

`CCCCCc1ccc(N2CCN(S(=O)(=O)C3(C(=O)NO)CCN(C(C)=O)CC3)CC2)cc1` [Example 239]: the results for the inhibition constant (Ki) at MMP-14 and on MMP-13 were 1050 nM and 0.37 nM, respectively.

Regarding `Cc1ccc(-c2ccc(N3CCN(S(=O)(=O)C4(C(=O)NO)CCOCC4)CC3)cc2)cc1` [Example 207], the figures for the Ki at MMP-14 and at MMP-13 were more than 10000 nM and 0.94 nM, respectively.

On to `CCCCOc1ccc(N2CCN(S(=O)(=O)C3(C(=O)NO)CCN(c4ccc(C#N)cc4)CC3)CC2)cc1` [Example 225], for which the Ki on MMP-14 is more than 10000 nM; on MMP-13, 5.88 nM.

Take `CCCCCc1ccc(N2CCN(S(=O)(=O)C3(C(=O)NO)CCOCC3)CC2)nc1` [Example 167]: the inhibitory constant (Ki) at MMP-14 was 458 nM; on MMP-13 it was 0.08 nM.

Regarding `CCCCOc1ccc(N2CCN(S(=O)(=O)C3(C(=O)NO)CCN(Cc4ccc(C)o4)CC3)CC2)cc1` [Example 246], the inhibitory constant (Ki) on MMP-14 amounted to 5950 nM; at MMP-13, 0.396 nM.

On to `CCCCOc1ccc(N2CCN(S(=O)(=O)C3(C(=O)NO)CCN(Cc4nccn4C)CC3)CC2)cc1` [Example 245], for which the inhibitory constant (Ki) at MMP-14 amounted to 2810 nM; at MMP-13, 0.177 nM.

For the molecule `CCCCOc1ccc(N2CCN(S(=O)(=O)C3(C(=O)NO)CCN(c4ccc(N(C)C)cc4)CC3)CC2)cc1` [Example 241], the Ki was more than 10000 nM at MMP-14 and 1.06 nM at MMP-13.

Turning to `COCCN1CCC(C(=O)NO)(S(=O)(=O)N2CCN(c3ccc(C(C)=O)cc3)CC2)CC1` [Example 174], the Ki on MMP-14 stood at 2910 nM; on MMP-13, 3.52 nM.

For `CCCCOc1ccc(N2CCN(S(=O)(=O)C3(C(=O)NO)CC3)CC2)cc1` [Example 63], the Ki is more than 10000 nM at MMP-14 and 3.16 nM at MMP-13.

Turning to `O=C(NO)C1(S(=O)(=O)N2CCN(c3ccc(OCCN4CCCC4)cc3)CC2)CCOCC1` [Example 162], the inhibition constant Ki is more than 10000 nM on MMP-14 and 7.71 nM at MMP-13.

As for `COCCN1CCC(C(=O)NO)(S(=O)(=O)N2CCN(c3ccc(Br)cc3)CC2)CC1` [Example 201], the inhibition constant Ki on MMP-14 is 120 nM; on MMP-13, 1.36 nM.

Regarding `CCCCOc1ccc(N2CCN(S(=O)(=O)C3(C(=O)NO)CCN(C(=O)N4CCCC4)CC3)CC2)cc1` [Example 231], the results for the Ki on MMP-14 and on MMP-13 were 1530 nM and 0.17 nM, respectively.

On to `CCCCOc1ccc(N2CCN(S(=O)(=O)C3(C(=O)NO)CCN(c4ccc5c(c4)OCO5)CC3)CC2)cc1` [Example 221], for which the Ki was more than 10000 nM at MMP-14 and 3.52 nM on MMP-13.
